Source: patent US20240124504A1, “AROMATIC HETEROCYCLIC COMPOUND, AND PHARMACEUTICAL COMPOSITION AND APPLICATION THEREOF” (GT APEIRON THERAPEUTICS LIMITED, priority 2020, published 2024)

Legend:
[1] = target: CDK2/cyclinE1 complex (Homo sapiens, UniProt P24941); assay: In-vitro enzymatic inhibitory activity testing, CDK2 inhibition assay (Caliper EZ Reader II); format: biochemical; details: CDK2/cyclinE1 0.5 nM, 180 min at 27° C.
Outline: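 CDK2/cyclinE1 (0.5 nM) phosphorylated 5-FAM-CDK7tide (2 μM) in MES buffer pH 6.5 with MgCl2, Tween 20 and BSA. Substrate and product were separated electrophoretically on a Caliper EZ Reader II. IC50 values came from nonlinear dose-response fits.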

[2] = system: human breast cancer cells HCC70; assay: Cell biological activity detection (CyQuant, 72 hours), HCC70; format: cell-based; details: incubation for 72 hours
Outline: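 A2780 and HCC70 cells seeded at 2000/well in RPMI 1640 + 10% FBS, treated next day with 9-point compound dilutions (top 10 μM, 1:4; 0.2% DMSO) for 72 h at 37 °C. Cell number read by CyQuant Direct nucleic acid stain (ex 488 nm); IC50 from dose–response fit.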

[3] = target: T1, CDK12 (aa686-1082)/cyclinK complex (Homo sapiens, UniProt Q9NYV4); assay: In-vitro enzymatic inhibitory activity testing, CDK12 inhibition assay (Caliper EZ Reader II); format: biochemical; details: CDK12/cyclinK 50 nM, 180 min at 27° C.; read-out: CDK12 IC50
T1 construct: A CDK12 (aa686-1082)/cyclinK complex (50 nM)
Outline: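 Caliper EZ Reader II mobility-shift separation of 5-FAM-CDK9tide substrate (2 μM) from phosphoproduct, using 50 nM CDK12 (aa686-1082)/cyclinK in 80 mM MES pH 6.5, 10 mM MgCl2, 0.01% Tween 20, 50 ug/mL BSA. Compound pre-incubated 10 min with enzyme, then substrate/ATP added for 180 min at 27° C; EDTA stop. IC50 by nonlinear dose-response regression.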

T1 sequence (Q9NYV4 686-1082, species assumed): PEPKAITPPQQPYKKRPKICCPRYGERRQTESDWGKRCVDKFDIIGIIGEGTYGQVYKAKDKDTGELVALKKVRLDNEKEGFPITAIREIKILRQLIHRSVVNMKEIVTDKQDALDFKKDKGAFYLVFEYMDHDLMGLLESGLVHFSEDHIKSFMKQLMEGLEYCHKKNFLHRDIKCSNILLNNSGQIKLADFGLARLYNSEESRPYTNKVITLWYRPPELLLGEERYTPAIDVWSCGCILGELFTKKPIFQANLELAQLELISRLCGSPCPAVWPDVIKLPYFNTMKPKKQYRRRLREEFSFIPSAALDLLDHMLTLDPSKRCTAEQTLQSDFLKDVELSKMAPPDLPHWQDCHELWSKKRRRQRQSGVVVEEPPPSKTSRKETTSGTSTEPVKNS
T1 sequence (O75909 whole entry partner, species assumed, the tested form may be a part): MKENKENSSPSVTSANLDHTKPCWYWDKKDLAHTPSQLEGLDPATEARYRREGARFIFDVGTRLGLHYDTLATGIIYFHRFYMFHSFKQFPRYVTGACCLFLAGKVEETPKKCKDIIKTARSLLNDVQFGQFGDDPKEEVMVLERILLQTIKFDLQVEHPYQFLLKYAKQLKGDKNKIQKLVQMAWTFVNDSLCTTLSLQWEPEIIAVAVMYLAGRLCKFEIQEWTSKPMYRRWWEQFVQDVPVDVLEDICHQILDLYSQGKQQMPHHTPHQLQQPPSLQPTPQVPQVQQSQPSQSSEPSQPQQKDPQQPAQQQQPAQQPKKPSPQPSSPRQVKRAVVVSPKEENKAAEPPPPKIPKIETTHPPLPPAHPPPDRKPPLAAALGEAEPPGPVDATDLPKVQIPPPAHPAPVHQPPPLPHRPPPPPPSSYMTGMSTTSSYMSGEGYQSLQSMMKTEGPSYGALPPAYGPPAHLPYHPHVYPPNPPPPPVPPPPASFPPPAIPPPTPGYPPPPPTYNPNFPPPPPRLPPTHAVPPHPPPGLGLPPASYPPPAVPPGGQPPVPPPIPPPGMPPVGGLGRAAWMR

SMILES | IC50 [1] [µM] | IC50 ([2]; Homo sapiens, HCC70, 72 h) [µM] | IC50 [3] [µM] | IC50 [2] [µM]
CP(C)(=O)c1cccc2c(-c3nc(NC4(CO)CC(F)(F)C4)ncc3C(F)(F)F)c[nH]c12 [Compound 96, (3-(2-((3,3-difluoro-1-(hydroxymethyl)cyclobutyl)amino)-5-(trifluoromethyl)pyrimidin-4-yl)-1H-indole-7-yl)dimethylphosphine oxide] | 5 to 50 | < 0.02 | > 50 | 
CP(C)(=O)c1cccc2c(-c3nc(NCC4CC4CO)ncc3C(F)(F)F)c[nH]c12 (single isomer, unassigned) [Compound 144] | 5 to 50 |  | > 50 | 0.02 to 0.2
CP(C)(=O)c1cccc2c(-c3nc(N[C@H]4CCC[C@@H]4O)ncc3C(F)(F)F)c[nH]c12 [Compound 155, (3-(2-(((1S,2S)-2-hydroxycyclopentyl)amino)-5-(trifluoromethyl)pyrimidin-4-yl)-1hydro-indole-7-yl)dimethylphosphine oxide] | 0.2 to 5 | < 0.02 | 5 to 50 | 
C[C@@H](CO)Nc1ncc(C(F)(F)F)c(-c2c[nH]c3c(P(C)(C)=O)c(C#N)ccc23)n1 [Compound 79, (S)-7-(dimethylphosphoryl)-3-(2-((1-hydroxy-propan-2-yl)amino)-5-(trifluoromethyl)pyrimidin-4-yl)-1H-indole-6-carbonitrile] | 0.2 to 5 | 0.02 to 0.2 | > 50 | 
CN(C)[C@H]1CC[C@H](Nc2ncc(C(F)(F)F)c(-c3c[nH]c4c(P(C)(C)=O)cccc34)n2)C1 [Compound 137, (3-(2-(((1S,3S)-3-(dimethylamino)cyclopentyl)amino)-5-(trifluoromethyl)pyrimidin-4-yl)-1H-indole-7-yl)dimethylphosphine oxide] | 0.2 to 5 | < 0.02 | 0.2 to 5 | 
CP(C)(=O)c1cccc2c(-c3nc(N[C@@H]4CCC[C@H]4O)ncc3C(F)(F)F)c[nH]c12 [Compound 156] | 5 to 50 | < 0.02 | 5 to 50 | 
C[C@@H](CO)Nc1ncc(C#N)c(-c2c[nH]c3c(P(C)(C)=O)cccc23)n1 [Compound 179, (S)-4-(7-(dimethylphosphoryl)-1H-indole-3-yl)-2-((1-hydroxypropan-2-yl)amino)pyrimidine-5-carbonitrile] | 0.2 to 5 | 0.02 to 0.2 | 5 to 50 | 
C[C@H](CO)Nc1ncc(C(F)(F)F)c(-c2c[nH]c3c(P(C)(C)=O)cccc23)n1 [Compound 93, (R)-(3-(2-((1-hydroxypropyl-2-yl)amino)-5-(trifluoromethyl)pyrimidin-4-yl)-1H-indole-7-yl)dimethylphosphine oxide] | 0.2 to 5 | < 0.02 | 5 to 50 | 
CC1(C)COCC(Nc2ncc(C(F)(F)F)c(-c3c[nH]c4c(P(C)(C)=O)cccc34)n2)CN1 (single isomer, unassigned) [Compound 91, (3-(2-((3,3-dimethyl-1,4-oxazepan-6-yl)amino)-5-(trifluoromethyl)pyrimidin-4-yl)-1H-indole-7-yl)dimethylphosphine oxide] | 5 to 50 | 0.02 to 0.2 | 5 to 50 | 
CP(C)(=O)c1cccc2c(-c3nc(NCC4CC4CO)ncc3C(F)(F)F)c[nH]c12 (single isomer, unassigned) [Compound 143] | 5 to 50 | 0.02 to 0.2 | > 50 | 
CP(C)(=O)c1cccc2c(-c3nc(NCC4CC(O)C4)ncc3C(F)(F)F)c[nH]c12 (stereo not drawn) [Compound 126, (3-(2-(((3-hydroxycyclobutyl)methyl)amino)-5-(trifluoromethyl)pyrimidin-4-yl)-1H-indole-7-yl)dimethylphosphine oxide] | 0.2 to 5 | 0.02 to 0.2 | > 50 | 
